{
  "source": "patent US20120107323A1",
  "about": "“KINASE PROTEIN BINDING INHIBITORS” (University of Florida, priority 2009, published 2012)",
  "key": {"[1]": {"system": "KYSE70 esophageal cancer cells", "experiment": "Cell viability (MTT), KYSE70", "format": "cell-based", "settings": "KYSE 70, 72 hours", "protocol": "(§1) Cell viability (MTT) and CFSE Proliferation assay: Cells were plated in 96-well plates and let adhere overnight. After cell treatment, cell viability was measured by 3-(4,5-dimethylthiazol-2-yl)-2,5-diphenyl tetrazolium bromide (MTT) assay (CellTiter 96® Aqueous, Promega, Madison, Wis.).\n(§2) Cell viability and detachment assays: After cells were treated with siRNA transfection, cell viability was measured by 3-(4,5-dimethylthiazol2-yl)-2,5-diphenyl tetrazolium bromide (MTT) assay (CellTiter 96® AQueous, Promega, Madison, Wis.). Briefly, 20 μl of the tetrazolium compound was added to each well. The cells were then incubated at 37° C. for 1 h. The plate was read at 490 nm with a plate reader to determine the viability. In detachment assays, detached and attached cells were harvested separately and counted in a hemocytometer. The percentage of detachment was calculated by dividing the number of detached cells by the total number of cells. Apoptosis assays: After treatment, attached and detached cells were collected, counted and prepared for terminal uridine deoxynucleotidyl transferase (TUNEL) assay by utilizing an APO-BRDU kit (BD Pharmingen, San Diego, Calif.) according to the manufacturer's instructions. Stained cells were analyzed with a fluorescence-activated cell sorting-Calibur flow cytometer (BD Biosciences). Calculation of the percentage of apoptotic cells in the sample was completed with CellQuest software (BD Biosciences). Apoptotic cells were also analyzed by Hoechst staining. Hoechst 33342 ([…]) was added to the fixed cells and the specimens were mounted on glass coverslips. The slides were viewed under the Zeiss microscope for apoptotic nuclei. The percent of apoptotic cells was calculated as the ratio of apoptotic cells to total number of cells.\n(§3) In addition, the effect of INT2-31 on cell viability of esophageal, pancreatic and breast cancer cell lines was analyzed and the IC50 value for each cell line was determined, as shown in Table 1. […] Similar to melanoma results, INT2-31 inhibits viability more in cancer cells compared to normal cells. Sensitivity of the cells to INT2-31 varied and directly correlated to the FAK and IGF-1R expression level of the cells."}, "[2]": {"system": "KYSE140 esophageal cancer cells", "experiment": "Cell viability (MTT), KYSE140", "format": "cell-based", "settings": "KYSE 140, 72 hours", "protocol": "as §1, §2, §3"}, "C8161 melanoma cells [3]": {"system": "C8161 melanoma cells", "experiment": "Cell viability (MTT), C8161", "format": "cell-based, human", "settings": "C8161, MTT", "protocol": "as §1, §2, §3\nTo determine the effect on melanoma cell viability, three human melanoma cell lines were exposed to increasing doses of INT2-31 for 72 h and the results compared to human melanocytes. […] The effects of INT2-31 varied in the three cell lines and was possibly related to constitutive FAK and IGF-1R activation with the least sensitive cell line (SK-MEL-28) having the greatest expression of FAK and IGF-1R."}, "A375 melanoma cells": {"system": "A375 melanoma cells", "experiment": "Cell viability (MTT), A375", "format": "cell-based, human", "settings": "A375, MTT", "protocol": "as §1, §2\nas §3, with “Sensitivity of the cells to INT2-31 varied and directly correlated to the FAK and IGF-1R expression level of the cells.” left out"}, "FAK-NT2 and IGF-1R": {"target": "T1, FAK-NT2 and IGF-1R (Homo sapiens, UniProt Q05397)", "T1 construct": "FAK-NT2 (a.a. 127-243); expressed in transfected cells", "T1 sequence (Q05397 127-243)": "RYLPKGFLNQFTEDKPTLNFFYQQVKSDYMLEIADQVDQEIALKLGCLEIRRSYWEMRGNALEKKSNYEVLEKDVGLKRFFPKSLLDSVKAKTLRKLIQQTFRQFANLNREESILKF", "experiment": "Immunofluorescent staining and confocal microscopy, colocalization", "format": "cell-based", "settings": "cells transfected in the presence of the compound", "protocol": "Cells were fixed in 3.7% paraformaldehyde in 1×PBS for 10 min and permeabilized with 0.5% Triton X-100 for 5 minutes. Cells were then washed with 1×PBS, blocked with 25% normal goat serum in 1×PBS for 20 min and incubated with primary antibody (1:200 dilution in 25% goat serum) for 30 min at room temperature. After washing three times with 1×PBS, cells were incubated with a Texas Red-conjugated secondary antibody (1:400 dilution in 25% goat serum) for 30 min at room temperature and washed another three times with 1×PBS before observed under the microscope. For coimmunostaining experiments, cells were incubated with another primary antibody diluted 1:100 in 25% goat serum for 1 h. After washing three times with 1×PBS, a fluorescein isothiocyanate-conjugated secondary antibody (1:100 dilution) was applied to the coverslip. Cells immunostained with FAK and IGF-IR antibodies were evaluated for colocalization with a Leica confocal microscope and the MRC-1024 confocal laser scanning system. Cells treated with FAK-CD or FAK siRNA with or without test compound were stained with FAK antibody and evaluated for displacement of FAK from the focal adhesions with a Zeiss microscope. […] Colocalization is low for FAK-NT1, FAK-NT3 and FAK-CD."}, "IGF-1R+/+ and −/− MEFs": {"system": "IGF-1R+/+ and −/− MEFs", "experiment": "MTT assay on IGF-1R wildtype and null fibroblasts", "format": "cell-based, mouse", "settings": "MTT, p<0.05", "protocol": "as §1\n(§4) Cell proliferation assay: Cell proliferation assay (Promega) using CellTiter 96 aqueous one solution was performed by adding a small amount of the One Solution Reagent directly to culture wells, incubating for 1-4 hours and then recording absorbance at 490 nm with a spectrophotometric plate reader. The quantity of formazan product as measured by the amount of 490 nm absorbance was directly proportional to the number of living cells in culture.\nas §2"}, "[4]": {"system": "FAK +/+ and FAK −/− mouse embryonic fibroblast", "experiment": "MTT assay on FAK wildtype and null fibroblasts", "format": "cell-based", "settings": "MTT, p<0.05", "protocol": "as §1, §4, §2"}, "C8161 melanoma cells [5]": {"system": "C8161 melanoma cells", "experiment": "Detachment assay, C8161 cells", "format": "cell-based, human", "settings": "INT2-31 5 μM at 72 h; TAE 226 at 48 h and 72 h", "protocol": "In detachment assays, detached and attached cells were harvested separately and counted in a hemocytometer. The percentage of detachment was calculated by dividing the number of detached cells by the total number of cells.\nDetachment assay: Cells were plated with and without compound for 24, 48, and 72 h, and detached and attached cells were counted in a hemocytometer. The percent of detachment was calculated by dividing the number of detached cells by the total number of cells and experiments performed in triplicate. Apoptosis assays: After treatment, attached and detached cells were collected, counted and prepared for terminal uridine deoxynucleotidyl transferase (TUNEL) assay by utilizing an APO-BRDU kit (BD Pharmingen, San Diego, Calif.) and cells analyzed with a FACSCalibur cytometer (Becton Dickinson, San Jose, Calif.). In addition, apoptotic cells were analyzed with Hoechst 33342 staining (1 μg/ml). The percent of apoptotic cells was calculated as the ratio of apoptotic cells to total number of cells."}},
  "data": [
    {"compound": "O=c1[nH]cc(F)c(=O)[nH]1", "note": "[5-FU, 5-Fluorouracil, reference compound]", "values": [
      {"measurement": "sensitivity of cells to single-agent treatment", "setting": "[1]", "value": "sensitive"},
      {"measurement": "sensitivity of cells to single-agent treatment", "setting": "[2]", "value": "sensitive"}
    ]},
    {"compound": "CC(=O)C1=C(O)C2(C)c3c(O)c(C)c(O)c(C(C)=O)c3OC2(Sc2ccccc2)CC1=O", "note": "(centres unmarked) [NSC 250435, 1,1′-(1,7,9-Trihydroxy-8,9b-dimethyl-3-oxo-4-a-(phenylthio)-3,4,4a,9b-tetrahydrodibenzo-[b,d]furan-2,6-diyl)diethanone]", "values": [
      {"measurement": "cell viability (in words)", "setting": "C8161 melanoma cells [3]", "value": "inhibited cell viability"},
      {"measurement": "cell viability (in words)", "setting": "A375 melanoma cells", "value": "inhibited cell viability"},
      {"measurement": "percentage of interaction between FAK-NT2 and IGF-1R", "setting": "FAK-NT2 and IGF-1R", "value": "around 30%"}
    ]},
    {"compound": "Nc1ncnc2c1c(-c1cccc(OCc3ccccc3)c1)cn2C1CC(CN2CCC2)C1", "note": "(centres unmarked) [NVP AEW541, reference compound]", "values": [
      {"measurement": "effect on IGF-1R wildtype compared to null fibroblasts", "setting": "IGF-1R+/+ and −/− MEFs", "value": "increased effect"},
      {"measurement": "effect on FAK wildtype compared to null fibroblasts", "setting": "[4]", "value": "increased effect"}
    ]},
    {"compound": "CNC(=O)c1ccccc1Nc1nc(Nc2ccc(N3CCOCC3)cc2OC)ncc1Cl", "note": "[TAE 226, reference compound]", "values": [
      {"measurement": "effect on detachment (in words)", "setting": "C8161 melanoma cells [5]", "value": "Greater effects"}
    ]}
  ]
}
